Laboratory results from US11447498B2, “Fused tetracyclic compounds and uses thereof in medicine” (SUNSHINE LAKE PHARMA CO., LTD., priority 2018, dated 2022).

How the values were obtained:
HBV DNA replication = test: Inhibition experiment on HBV virus replication (HepG 2,2,15 cells, supernatant HBV DNA by qPCR); assay type: cell-based; conditions: Hepatitis B virus, HepG2.2.15, 10 days treatment, supernatant HBV DNA on day 11
Source text: (§1) The chromosomal integration of HepG2,2,15 cells (SELLS, PNAS, 1987 and SELLS, JV, 1988) has a complete HBV genome and stably expresses viral RNA and viral proteins. HepG2,2,15 cells are capable of secreting mature hepatitis B virus particles and HBsAg into the culture medium. Virus particles DNA and HBsAg secreted by HepG 2,2,15 cells can be quantified by qPCR and ELISA, and the effects of compounds on viral replication and HBsAg secretion can be detected.
(§2) HepG 2,2,15 cells were inoculated with 8,000 per cell to 96-well cell culture plates in duplicate, and were cultured for 3 days until the cells grew to full-hole. Cells were treated with 4-fold serial dilutions of compounds for 10 days, and were given once every other day. The final concentration of DMSO in all pores was 0.5% and DMSO was used as a drug-free control. The supernatant was collected for quantitative detection of HBV DNA on day 11.
Viral genomic DNA was detected by qPCR method, and HBV primers were as follows: […]
The SYBR Premix Ex Taq D-Takara DRR081S kit was used, and 1 μL of cell culture supernatant was used as a template. A standard curve was made using a plasmid containing the HBV genome, and the viral copy number was calculated using the standard curve. Concentration-virus copy number was processed using Graphpad Prism 5 software, and IC50 of compounds inhibiting virus replication was calculated by four-parameter nonlinear regression model.

HBsAg secretion = test: Inhibition experiment on HBsAg secretion (HepG 2,2,15 cells, ELISA); assay type: cell-based; conditions: Hepatitis B virus, HepG2.2.15, read-out: HBsAg IC50
Source text: as §1
as §2, with “HBsAg” for “HBV DNA”
The level of HBsAg secreted by the cells after treatment of the compound was detected by ELISA method, and the method used a hepatitis B surface antigen diagnostic kit (Shanghai Kehua Biotech Co., Ltd. S10910113). 25 μL of the supernatant to be assayed (PBS was diluted to 75 μL) was added to per well in the ELISA plate, and the kit positive control and negative control were set. The ELIS A plate was blocked with a cover paper and incubated at 37° C. for 60 minutes. The ELISA plate was taken out, and the cover paper was teared off, and 50 μL of enzyme conjugate was added to each well. The ELISA plate was oscillated on the shaker for 10 seconds, blocked with a cover paper and incubated at 37° C. for 30 minutes. The ELISA plate was taken out, the cover paper was teared off, and the ELISA plate was washed 5 times: each time the liquid in the hole was discarded, and the washing liquid was filled into the holes, left to stand for 60 seconds, dried, and the liquid residue was patted to dry on the absorbent paper. A freshly prepared mixture of Developer A and Developer B was added to all wells immediately after washing: 100 μL per well. The ELISA plate was oscillated on the shaker for 10 seconds, blocked with a cover paper and incubated at 37° C. for 30 minutes. 50 μL of stop solution was added to all wells. Absorbance was read on the Envision plate reader at a wavelength of 450 nm.
Concentration-HBsAg OD450 was processed using Graphpad Prism 5 software, and IC50 of compounds inhibiting against HBsAg secretion was calculated by four-parameter nonlinear regression model.

[1] = PK test experiments in beagle dogs; assay type: in vivo
Protocol: The PK test in vivo of the compound of the present invention in beagle dogs (body weight 10-12 kg, male, age 10-12 months, 3 per group with oral administration, 3 per group with intravenous injection) The beagle dog was […] After administration, venous blood was collected at time points (0.083, 0.25, 0.5, 1, 2, 4, 6, 8 and 24 hours) and collected in an anticoagulation tube to which EDTA-K2 was added. Plasma samples were extracted by liquid-liquid extraction and quantitatively analyzed by multiple reaction ion monitoring (MRM) on a triple quadrupole tandem mass spectrometer. Pharmacokinetic parameters were calculated using a noncompartmental method by WinNonLin 6.3 software.

[2] = PK test experiments in SD rats; assay type: in vivo; design: VSS: unit not given here
Protocol: The PK test in vivo of the compound of the present invention in SD rats (body weight 200-250 g, male, age 2-3 months, 3 per group with oral administration, 3 per group with intravenous injection) The SD rat was administered orally with 2.5 mg/kg or 5 mg/kg of the compound tested or intravenously injected with 0.5 mg/kg or 1 mg/kg of the compound tested. After administration, venous blood was collected at time points (0.083, 0.25, 0.5, 1, 2, 5, 7 and 24 hours) and collected in an anticoagulation tube to which EDTA-K2 was added. Plasma samples were extracted by liquid-liquid extraction and quantitatively analyzed by multiple reaction ion monitoring (MRM) on a triple quadrupole tandem mass spectrometer. Pharmacokinetic parameters were calculated using a noncompartmental method by WinNonLin 6.3 software.

[3] = male, dog, plasma, IV, 0.5 mg/kg
[4] = male, dog, plasma, PO, 2.5 mg/kg

SMILES: CC(C)N1Cc2cc(OCCC3CC3)c3c(c2-c2cc(=O)c(C(=O)O)cn21)CCO3 [Example 15, 4-(2-Cyclopropylethoxy)-7-isopropyl-11-oxo-2,6,7,11-tetrahydro-1H-furo [2,3-h]pyrido[2,1-a]phthalazine-10-carboxylic Acid]
- IC50 (HBV DNA replication): 1.81 nM
- IC50 (HBsAg secretion): 3.13 nM
- VSS ([1]; IV, 0.5 mg/kg): 0.23 kg⁻¹
- F ([1]; PO, 2.5 mg/kg): 102.2%
- AUC(0-inf) [1, 3]: 12200 ng·h/mL
- AUC(0-t) [1, 3]: 11900 ng·h/mL
- Cmax [1, 3]: 2010 ng/mL
- clearance [1, 3]: 0.69 mL/min/kg
- AUC(0-inf) [1, 4]: 62400 ng·h/mL
- AUC(0-t) [1, 4]: 60500 ng·h/mL
- Cmax [1, 4]: 7090 ng/mL
- VSS ([2]; IV, 1 mg/kg): 0.9
- F ([2]; PO, 5 mg/kg): 157.9%
- AUC(0-inf) ([2]; male, rat, plasma, IV, 1 mg/kg): 2280 ng·h/mL
- AUC(0-t) ([2]; male, rat, plasma, IV, 1 mg/kg): 2140 ng·h/mL
- Cmax ([2]; male, rat, plasma, IV, 1 mg/kg): 1500 ng/mL
- clearance ([2]; male, rat, plasma, IV, 1 mg/kg): 7.32 mL/min/kg
- AUC(0-inf) ([2]; male, rat, plasma, PO, 5 mg/kg): 17800 ng·h/mL
- AUC(0-t) ([2]; male, rat, plasma, PO, 5 mg/kg): 17700 ng·h/mL
- Cmax ([2]; male, rat, plasma, PO, 5 mg/kg): 2170 ng/mL
